Experimental findings from ChEMBL document CHEMBL2094269, “WEHI/Eskitis Trypanosoma b. brucei screening data” are described below.

The IC50 is the point on the concentration scale where inhibition reaches its midpoint. Higher therefore signals a need for much substance.

Data set [1] in a line: DNDI: Cytotoxicity against human MRC-5 lung fibroblast cells. The note with it: IC50.
The test system of data set [2] is Trypanosoma brucei brucei. The experiment in a line: microbe, parasite or virus in culture. The data set is classed as functional, organism-based, STIB 795.
Description: DNDI: Inhibition of Human African Trypanosomiasis (HAT), STIB 795, in vitro

Take `CCn1c2cccc(=O)c-2nc2ccccc21`: the half-inhibitory concentration (IC50) in data set [1] is greater than 20.8 µM; in data set [2] (Trypanosoma brucei, STIB 795), less than 0.04 µM.
In the case of `CCc1ccc(/C=N\n2cnnc2)cc1`, the IC50 in data set [1] is greater than 41.7 µM; in data set [2] (Trypanosoma brucei, STIB 795), 0.647 µM.
On the same counts, the results for `CCN1/C(=C\C=C/C2C=Cc3ccccc3N2CC)C=Cc2ccccc21` (stereo not given) are 5.14 µM and 0.408 µM.
Regarding `CCN(CC)c1ccc(/C=N/n2cnnc2)c(O)c1`, the 50% inhibitory concentration (IC50) was greater than 41.7 µM in data set [1] and 1.92 µM in data set [2] (Trypanosoma brucei, STIB 795).
Turning to `Cc1cc(C)[n+]2nc3n(-c4ccccc4)c(C)cc(C)c-3c2n1`, the IC50 was greater than 41.7 µM in data set [1] and 4.46 µM in data set [2] (Trypanosoma brucei, STIB 795).
On the same counts, the results for `Cc1cc(Cl)c2c(N)c(C)cc(C)c2n1` are greater than 41.7 µM and 4.09 µM.
On the same counts, the results for `Cc1cccc(NC(=O)Cn2cc(CO)c3ccccc32)c1` are greater than 4.17 µM and 5.39 µM.
Regarding `CNCc1ccccc1Sc1cccc2ccccc12`, the IC50 is greater than 41.7 µM in data set [1] and 4.82 µM in data set [2] (Trypanosoma brucei, STIB 795).
On the same counts, the results for `COC(=O)c1c(SCC(=O)Nc2cccc(OC)c2)[nH]c2ccccc2c1=O` are greater than 20.8 µM and 4.55 µM.
Consider `Cc1nnc(N/N=C/c2cc(Cl)ccc2O)nc1O`, for which the half-inhibitory concentration (IC50) in data set [1] was found to be 4.74 µM; in data set [2] (Trypanosoma brucei, STIB 795), 3.65 µM.
On the same counts, the results for `COc1ccccc1C/C(N)=N/OC(=O)c1ccc(OC)c(OC)c1` are greater than 4.17 µM and 0.558 µM.
On the same counts, the results for `CC[N+]1=C(/C=C/N(C)C)c2cccc3cccc1c23` are greater than 20.8 µM and 3.41 µM.
On to `CCOc1ccc(OCc2ccc(C(=O)N3CCCC(C)C3)cc2)cc1` (stereo not given), for which the IC50 in data set [1] is greater than 41.7 µM; in data set [2] (Trypanosoma brucei, STIB 795) it was 2.56 µM.
In the case of `O=C(NC(=S)NNC(=S)N/N=C/c1ccccc1)c1ccccc1`, the IC50 in data set [1] was greater than 20.8 µM; in data set [2] (Trypanosoma brucei, STIB 795), 4.16 µM.
Consider `CC[n+]1c(/C=C/c2ccc(N(C)C)cc2)sc2cc(NC(C)=O)ccc21`, for which the IC50 in data set [1] is greater than 20.8 µM; in data set [2] (Trypanosoma brucei, STIB 795) it was 0.049 µM.
On the same counts, the results for `COc1ccc(C(=N)NOC(=O)c2cccs2)cc1` are greater than 41.7 µM and 1.84 µM.
Regarding `COc1ccc(/C(N)=N/OC(=O)c2ccccc2Cl)cc1`, the IC50 is greater than 20.8 µM in data set [1] and 1.21 µM in data set [2] (Trypanosoma brucei, STIB 795).
For `CCCN(CCC)C(=O)Cn1ccc(=N)c2ccccc21`, the IC50 is greater than 41.7 µM in data set [1] and 3.52 µM in data set [2] (Trypanosoma brucei, STIB 795).
On to `Oc1c(/C=N/NC(=S)Nc2cccc(F)c2)cc2c3c1CCCN3CCC2`, for which the IC50 in data set [1] was greater than 41.7 µM; in data set [2] (Trypanosoma brucei, STIB 795) it was 3.08 µM.
On the same counts, the results for `O=C(Nc1ccc(Cl)cc1)O/N=C(/c1ccc(Cl)cc1)N1CCOCC1` are greater than 41.7 µM and 4.31 µM.
On the same counts, the results for `Cc1cccc(C)c1C(O)(CC(O)CNC(C)C)c1c(C)cccc1C` (stereo not given) are greater than 41.7 µM and 4.92 µM.
In the case of `Cc1cc(-c2ccco2)c(C#N)c(SCC(=O)c2ccc(O)c(O)c2)n1`, the IC50 in data set [1] was greater than 41.7 µM; in data set [2], 0.756 µM; in data set [2] (Trypanosoma brucei, STIB 795) it was 0.791 µM.
Consider `COc1ccccc1N1CCN(Cc2cc(Cl)c3cccnc3c2O)CC1`, for which the IC50 in data set [1] is greater than 4.17 µM; in data set [2] it was greater than 10.4 µM; in data set [2] (Trypanosoma brucei, STIB 795) it was 6.05 µM.
With `COC(=O)c1ccccc1N/N=C1\C(=N)ON=C1N`, the IC50 was greater than 41.7 µM in data set [1] and 0.41 µM in data set [2] (Trypanosoma brucei, STIB 795).
As for `CCCOc1ccc(C(=O)Nc2ccc(Cc3ccncc3)cc2)cc1`, the IC50 in data set [1] was found to be 4.61 µM; in data set [2] (Trypanosoma brucei, STIB 795), 1.23 µM.
As for `Cc1ccc(CN(C)C)c(O)c(=O)c1`, the IC50 in data set [1] is greater than 20.8 µM; in data set [2] (Trypanosoma brucei, STIB 795), 5.63 µM.
On the same counts, the results for `COc1ccc(-c2cc3ccccc3n2CC(O)CNCCO)cc1` (stereo not given) are greater than 20.8 µM and 5.17 µM.
As for `NCCc1c(-c2ccccc2)n(-c2ccccc2)c2ccccc12`, the half-inhibitory concentration (IC50) in data set [1] was greater than 20.8 µM; in data set [2] (Trypanosoma brucei, STIB 795), 1.49 µM.
On the same counts, the results for `Cc1cc(C)nc(NC(c2ccco2)c2ccc3cccnc3c2O)n1` (stereo not given) are greater than 41.7 µM and 5.39 µM.
For the molecule `CN(CCO)CC(O)Cn1c2ccc(Cl)cc2c2cc(Cl)ccc21` (stereo not given), the IC50 is greater than 20.8 µM in data set [1] and 4.95 µM in data set [2] (Trypanosoma brucei, STIB 795).
On to `COc1ccc(C2=Nn3c([n+](C)c4cc(C)c(C)cc43)SC2)cc1OC`, for which the IC50 in data set [1] is greater than 20.8 µM; in data set [2] (Trypanosoma brucei, STIB 795), 5.33 µM.
On the same counts, the results for `COc1ccc(C(=O)O/N=C(\N)Cc2cccs2)cc1OC` are greater than 20.8 µM and 1.61 µM.
Take `Cc1ccc(C(=O)ON=C(/C=C/c2ccccc2)/C=C/c2ccccc2)cc1`: the IC50 in data set [1] was greater than 41.7 µM; in data set [2] (Trypanosoma brucei, STIB 795), 1.65 µM.
On the same counts, the results for `Oc1c(C(Nc2nccs2)c2ccccn2)ccc2cccnc12` (stereo not given) are 4.16 µM and 0.973 µM.
Take `Cc1cc(OCC(O)CNC(C)c2ccccc2)cc(C)c1Cl` (stereo not given): the IC50 was greater than 41.7 µM in data set [1] and 4.73 µM in data set [2] (Trypanosoma brucei, STIB 795).
On the same counts, the results for `Cc1ccc2c(c1)OCC(CC(=O)NCCN(C)C)N2Cc1ccc(F)cc1` (stereo not given) are greater than 4.17 µM and 2.2 µM.
For `COc1ccccc1C(=O)c1sc(Nc2ccc3c(c2)OCCO3)nc1N`, the IC50 in data set [1] was greater than 1.04 µM; in data set [2] (Trypanosoma brucei, STIB 795), no more than 1.08 µM.
On the same counts, the results for `O=C(Nc1ccc(Cl)c(-c2nc3ncccc3o2)c1)c1ccco1` are greater than 41.7 µM and 0.17 µM.
With `CC(=O)Cc1ccc2cccc(O)c2n1`, the concentration for half-maximal inhibition (IC50) was greater than 4.17 µM in data set [1] and 4.56 µM in data set [2] (Trypanosoma brucei, STIB 795).
In the case of `CC(C)(C)C(=O)N1N=C(c2ccc(NS(C)(=O)=O)cc2)CC1c1ccco1` (stereo not given), the IC50 in data set [1] is greater than 20.8 µM; in data set [2] (Trypanosoma brucei, STIB 795) it was 5.6 µM.
As for `COc1cc(Cl)cc2c1Sc1ccccc1CC2N1CCNCC1` (stereo not given), the IC50 in data set [1] was greater than 20.8 µM; in data set [2] (Trypanosoma brucei, STIB 795), 4.17 µM.
On the same counts, the results for `Cc1cccc2ccc(/C=C/c3ccc(N(C)C)cc3)[n+](C)c12` are greater than 4.17 µM and less than 0.004 µM.
On the same counts, the results for `CN(C)c1ccc(/C=C/c2cc[n+](C)cc2)cc1` are greater than 20.8 µM and 0.458 µM.
On the same counts, the results for `CCN1C(=Cc2sc3ccc(Cl)cc3[n+]2CC)C=Cc2cc(OC)ccc21` are greater than 4.17 µM and 0.706 µM.
As for `O=c1nc2oc3ccc4ccccc4c3cc-2c(=O)[nH]1`, the IC50 in data set [1] was greater than 20.8 µM; in data set [2] (Trypanosoma brucei, STIB 795) it was 5.06 µM.
On the same counts, the results for `CCN1/C(=C/C=C/C2=[N+](C)c3ccc(C)cc3C2(C)C)C=Cc2ccccc21` are greater than 4.17 µM and 0.239 µM.
In the case of `COc1ccc(C2(CCNCc3ccc(Cl)cc3)CCOC(C)(C)C2)cc1` (stereo not given), the IC50 in data set [1] was greater than 41.7 µM; in data set [2] (Trypanosoma brucei, STIB 795), 7.61 µM.
On the same counts, the results for `CC1CC2=C(C(=O)c3ccccc3C2=O)C(C)O1` (stereo not given) are greater than 41.7 µM and 5.59 µM.
As to `O=C(N/N=C/c1ccc(-c2ccccc2Cl)o1)c1ccccc1`, the IC50 is greater than 41.7 µM in data set [1] and less than 0.004 µM in data set [2] (Trypanosoma brucei, STIB 795).
As to `O=C1/C(=C/c2ccncc2)CCC/C1=C\c1ccncc1`, the IC50 in data set [1] came out at 1.94 µM; in data set [2] (Trypanosoma brucei, STIB 795) it was 0.03 µM.
On the same counts, the results for `CC1(C)CC2CC(C)(CN2C(=O)COCc2cc(-c3cccs3)on2)C1` (stereo not given) are greater than 41.7 µM and 5.44 µM.
Consider `N=C(NOC(=O)CC1CCCCC1)c1cccnc1`, for which the IC50 was greater than 41.7 µM in data set [1] and 5.36 µM in data set [2] (Trypanosoma brucei, STIB 795).
Turning to `N=c1c2c(n(Cc3ccc(Cl)cc3Cl)c3c1CCC3)CCCC2`, the IC50 in data set [1] was greater than 41.7 µM; in data set [2] (Trypanosoma brucei, STIB 795), 0.842 µM.
For the molecule `N/C(=N\OC(=O)C12CC3CC(CC(C3)C1)C2)c1ccccc1Cl`, the IC50 was greater than 41.7 µM in data set [1] and 0.372 µM in data set [2] (Trypanosoma brucei, STIB 795).
